The values that follow come from patent publication US20210309669A1, “Heterocyclic Spiro Compounds As MAGL Inhibitors” (Pfizer Inc., priority 2018, published 2021).

One data set deals with T1, human recombinant FAAH (Homo sapiens, UniProt O00519).
T1 construct: purchased Cayman 10010183
T1 sequence (O00519 1-579): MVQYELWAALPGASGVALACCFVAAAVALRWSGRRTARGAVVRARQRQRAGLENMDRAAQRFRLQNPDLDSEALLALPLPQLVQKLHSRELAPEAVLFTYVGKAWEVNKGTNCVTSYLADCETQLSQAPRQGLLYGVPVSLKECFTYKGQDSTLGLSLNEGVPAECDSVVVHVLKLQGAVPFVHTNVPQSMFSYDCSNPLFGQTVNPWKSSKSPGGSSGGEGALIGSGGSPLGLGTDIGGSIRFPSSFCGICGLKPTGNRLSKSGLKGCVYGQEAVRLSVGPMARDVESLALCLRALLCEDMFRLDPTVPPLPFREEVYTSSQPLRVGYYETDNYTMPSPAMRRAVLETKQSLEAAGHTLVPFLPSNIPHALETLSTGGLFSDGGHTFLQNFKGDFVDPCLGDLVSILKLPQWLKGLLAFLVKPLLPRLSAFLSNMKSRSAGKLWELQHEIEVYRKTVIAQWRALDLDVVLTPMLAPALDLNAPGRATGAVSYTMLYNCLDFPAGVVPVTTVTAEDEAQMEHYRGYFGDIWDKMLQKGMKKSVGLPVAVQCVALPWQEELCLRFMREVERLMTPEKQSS
The experiment in a line: FAAH inhibition enzymatic assay (Arachidonoyl-AMC substrate). Format: biochemical. To be noted: 30 minute incubation; geometric mean; read-out: FAAH (T = 30 min) IC50. As for the experimental part: Assessment of FAAH inhibition utilizes human recombinant FAAH and the fluorescent substrate, Arachidonoyl-AMC. 400 nL of a test compound at decreasing concentrations was spotted into a 384-well back plate (PerkinElmer, 6007279) using a Labcyte Echo, followed by addition of 10 μl of FAAH enzyme (Cayman 10010183) in assay buffer (50 mM Tris, pH 9.0, 1 mM EDTA, i.e. ethylenediaminetetraacetic acid). After a 30 minute incubation at room temperature, 10 μL of Arachidonyl-AMCA was added in assay buffer with 16% DMSO. […] The reaction was allowed to progress for 60 minutes, after which the plate was read on a Molecular Devices FlexStation reader at an Ex/Em of 355/460. Percent inhibitions were calculated based on controls wells containing either no compound (0% inhibition) or a control compound (e.g., an FAAH inhibitor whose activity is known or was previously reported in the literature, such as one with about 100% inhibition). IC50 values were generated based on a four parameter fit model using ABASE software from IDBS.

Data set [1] is described as follows: Dog intravenous pharmacokinetic study. Format: in vivo, Male beagle dogs. Particulars: male, beagle, IV dose of 1 mg/kg, plasma, read-out: Dog t1/2 (converted). As for the experimental part:
The pharmacokinetic studies in dog were conducted at Pfizer Global Research and Development (Groton, Conn.). All in vivo studies were conducted in accordance with regulations and established guidelines using protocols reviewed and approved by the Pfizer Worldwide Research and Development (WRD, or other) Institutional Animal Care and Use Committee.
Male beagle dogs were fasted overnight with water provided ad libitium. The dogs were fed at approximately 2-4 h post-dose. The dogs (n=2) were administered an IV bolus via the cephalic vein. Compounds of Examples 1-3 were tested along with the following four comparative compounds.
All test compounds were administered an IV dose of 1 mg/kg of the specified compound which was delivered in a dose volume of 0.5 mL/kg. The dose solution was formulated in 10% PEG400/90% of 23% (w/v) HPBCD in de-ionized water for the following test compounds: Example 1, Example 2, and Example 3; in 20% SBECD (sulfobutyl either β-cyclodextrin) for Comparative-Compound 3; in 23% (w/v) HPBCD (hydroxypropyl β-cyclodextrin) in water for Comparative Compound 2; in 12.5.% SBECD in water with 0.25% 0.1N HCl to pH 5 for Comparative Compound 1. Serial blood samples were collected from each dog via the jugular vein prior to dose administration and at the following time points post-dose: 0.083, 0.25, 0.5, 1, 2, 4, 7, and 24 h for all compounds with an additional time point of 0.016 h collected for Comparative Compound 1 only. Blood samples were collected into tubes containing EDTA and placed on wet ice. Following centrifugation to afford plasma, the samples were transferred to polypropylene tubes and stored frozen at −20° C. to −80° C. until analysis.
All plasma samples were quantified via liquid chromatography/tandem mass spectrometry (LC/MS-MS) using multiple reaction monitoring with non-validated methods. The plasma standard curves were generated with species specific plasma. Pharmacokinetic parameters were determined by non-compartmental analysis using Watson LIMS software version 7.4 (Thermo Fisher Scientific, Waltham, Mass.). The area under the concentration versus time curve (AUC) was calculated from the first time point to the last time point with measurable drug concentration using a linear trapezoidal rule. The area under the concentration versus time curve from the first time point to time infinity (AUC(0-inf)) was calculated by extrapolation from the time point where the last measurable concentration occurred to time infinity by dividing the observed concentration at the last time point by the elimination rate constant determined using linear regression of plasma concentration versus time data. The plasma clearance (CLp) was calculated by the equation CLp=dose/AUC(0-inf). The elimination half-life (t½) was calculated using the following equation t1/2=ln 2/k; k is equal to the rate constant of elimination calculated by the least squares of the log transformed data.

Usually IC50 stands for the point on the concentration scale where inhibition reaches its midpoint. Consider `O=C(OC(C(F)(F)F)C(F)(F)F)N1CCC2(CCC(NS(=O)(=O)CC3CC3)CO2)CC1` (stereo not drawn) [Example 3, 1,1,1,3,3,3-Hexafluoropropan-2-yl 3-{[(cyclopropylmethyl)sulfonyl]amino}-1-oxa-9-azaspiro[5.5]undecane-9-carboxylate], for which the half-maximal inhibitory concentration (IC50) at human recombinant FAAH is greater than 30 µM. In addition, the half-life in data set [1] was 26.3 h.
Take `O=C(OC(C(F)(F)F)C(F)(F)F)N1CCC2(CC1)C[C@@H](NS(=O)(=O)C1CC1)CO2` [Example 2, 1,1,1,3,3,3-Hexafluoropropan-2-yl (3R)-3-[(cyclopropylsulfonyl)amino]-1-oxa-8-azaspiro[4.5]decane-8-carboxylate]: the IC50 at human recombinant FAAH was greater than 30 µM. In addition, the half-life in data set [1] is 40.7 h.
`O=C(OC(C(F)(F)F)C(F)(F)F)N1CCC2(CC1)C[C@@H](NS(=O)(=O)CC1CC1)CO2` [Example 1, 1,1,1,3,3,3-Hexafluoropropan-2-yl (3R)-3-{[(cyclopropylmethyl)sulfonyl]amino}-1-oxa-8-azaspiro[4.5]decane-8-carboxylate]: the IC50 on human recombinant FAAH is greater than 30 µM. Further, the half-life in data set [1] was 16.9 h.
